Results as given in patent publication US6476049B2, “Therapeutic agent for intermittent claudication” (Ajinomoto Co., Inc., priority 1999, dated 2002).
Structures can show the parent of a compound that is named as a salt.

Legend:
[1] = test system: Rabbit Intermittent Claudication Model (injured limb of the high cholesterol chow-loaded rabbit); test: Rabbit intermittent claudication model: recovery time of tissue oxygen saturation after exercise (near infrared spectrophotometer); assay type: in vivo, male New Zealand White Rabbits; settings: for Recovery Time of Tissue Oxygen Saturation: 3 days after operation, injured limb, high cholesterol chow-loaded rabbit; for Effect on the recovery time of the tissue oxygen saturation (in words): vs control, drug of the invention 3 mg/kg, pentoxifylline 300 mg/kg, cilostazol 100 mg/kg, sarpogrelate hydrochloride 300 mg/kg
Text: To male New Zealand White Rabbits, there was given 1% cholesterol-containing RC4 (available from ORIENTAL KOBO Co., Ltd.) chow over 4 weeks (100 g/day/animal) to obtain a high cholesterol-loaded group (8 animals), while normal RC4 (available from ORIENTAL KOBO Co., Ltd.) chow was given to a group of such animals (normal feed-loaded group: 6 animals). The groins of these animals belonging to these two groups were incised in their supine position, under the anesthesia with ketamine and xylazine, followed by exposing the right femoral artery and then repeating, three times, the balloon injury treatment, which comprises the steps of inserting a Fogarty's balloon catheter in a length of 7 cm into the artery, expanding the balloon catheter to a diameter of 5 mm within the right iliac artery and then pulling out the catheter while the balloon catheter was still in the expanded state and finally ligating the right femoral artery. After 3 days from the operation, the both gluteal regions and the posterior of the lower limbs were dissected in the supine position of the animal under the anesthesia with ketamine and xylazine. The probe of a near infrared spectrophotometer was directly fitted to the interior of the both side gastrocnemius muscles, followed by application of electrical stimulation at 1 Hz to the sciatic nerves on both sides for 2 minutes as exercise loads.
After the application of exercise, these animals were kept quiet rest, followed by monitoring the process in which the degree of tissue oxygen saturation reduced during exercise was recovered, using an multi-wavelength-type near infrared spectrophotometer to thus obtain the time required for the recovery of the degree of tissue oxygen saturation in the both limbs. As such multi-wavelength-type near infrared spectrophotometer, there was used MCPD-2000 available from OTSUKA ELECTRONICS Co., Ltd., which had been improved in such a manner that the device could almost simultaneously detect the tissue oxygen saturation for the both side gastrocnemius muscles. In this respect, the distance between the light guide and detector of near infrared light rays was set at a level of 5 mm. A ½ recovered tissue oxygen saturation (½ StO2), which was an intermediate value of the tissue oxygen saturation observed after the application of the exercise (the minimum tissue oxygen saturation after exercise) and the tissue oxygen saturation observed after the recovery of exercise (the maximum tissue oxygen saturation after exercise) and then the recovery time was defined to be the time required for arriving at the level of ½ StO2 after the end of exercise-application.
To male New Zealand White Rabbits, there was given 1% cholesterol-containing RC4 (available from ORIENTAL KOBO Co., Ltd.) chow over 4 weeks (100 g/day/animal), followed by dividing these animals into two groups in such a manner that the total cholesterol levels in the plasma were identical to one another and then subjecting these two groups to treatments identical to those used in the foregoing model.
To these animals, there was orally administered, once a day, 1-formyl-N-(2-(4-(5H-dibenzo [a, d] cyclohepten-5-ylidene)-1-piperidinyl)) ethyl isonipecotic acid amide represented by the formula (2) after dissolving it in water in an amount of 3 mg/kg over the term extending from the day following the operation to the day on which the near infrared spectrophotometric measurement was initiated. On the other hand, distilled water was orally administered to the control group once a day. After 3 days from the operation, the recovery time of the tissue oxygen saturation after exercise was determined using a near infrared spectrophotometer.
The same procedures used in Example 1 were repeated except for using 300 mg/kg of pentoxifylline in place of the compound represented by the formula (2) to thus carry out the determination. […]

[2] = test system: Rat Intermittent Claudication Model; test: Rat intermittent claudication model (lauric acid injection): score for lower limb lesion; assay type: in vivo, male SD rats; settings: for Score for Lower Limb Lesion, After 1 day / Score for Lower Limb Lesion, After 3 days / Score for Lower Limb Lesion, After 7 days / Score for Lower Limb Lesion, After 14 days / Score for Lower Limb Lesion, After 21 days: score 0-5, formula (2) hydrochloride 3 mg/kg/day, pentoxifylline 60 mg/kg/day, oral; for Score for Lower Limb Lesion, After 1 day: after 1 day from lauric acid injection (baseline), control 4.0; for Score for Lower Limb Lesion, After 3 days / Score for Lower Limb Lesion, After 7 days / Score for Lower Limb Lesion, After 14 days: control 3.8; for Score for Lower Limb Lesion, After 21 days: control 3.4
Experimental: (§1) Using an improved model of Corcico et al. (Corcico N. Cardiovasc. Drugs Ther., 1993, 7:241-251), male SD rats were made run on a rat treadmill (available from NATSUME SEISAKUSHO) at a speed of 10 m/min, followed by stepwise raising the running speed by 5 m/min every 3 minutes to thus determine the time (the maximum running time) required till the rats could not run any more and to thus evaluate the running ability of each animal. On the following day, these rats were anesthetized with pentobarbital and then 3.5 mg/ml of sodium laurate solution (available from SIGMA Company; dissolved in a 0.5% glucose aqueous solution) was injected into the right and left femoral arteries at a dose of 100 μl/leg to thus induce artificial intermittent claudication in the animals.
(§2) The same procedures used in Reference Example 2 were repeated using male SD rats (15 animals) to thus establish a rat intermittent claudication model. On the day following the lauric acid-injection, each animal was inspected for the maximum running time and these animals were divided into three groups so that the running abilities of these groups were almost identical to one another. To the first group (drug-administered group), there was orally administered, once a day, 3 mg/kg of hydrochloride of the compound represented by the formula (2) dissolved in distilled water over the term extending from the day following the lauric acid injection to 21st day, while 60 mg/kg of pentoxifylline (available from SIGMA Company) dissolved in distilled water was orally administered to the second group once a day as a comparative example. To the third group (control group), there was orally administered distilled water once a day. After 3, 7, 14 and 21 days from the lauric acid-injection, the maximum running time of each animal was determined to thus evaluate the recovery rate relative to the maximum walking time observed after the day following the lauric acid-injection (this was defined to be 100). In addition, the presence of any lesion on the limbs was simultaneously confirmed. The presence of any lesion on the lower limb was rated according to the following 6 evaluation criteria: 0: normal and all of the 5 toes could widely be opened; 1: limbs could look upward, but the toes could not be opened; 2: the limbs looked downward; 3: not less than 3 claws were necrosed; 4: not less than 3 toes were necrosed; and 5: not less than 3 toes were left out.

[3] = test system: Rat Intermittent Claudication Model; test: Rat intermittent claudication model (lauric acid injection): maximum running/walking time on treadmill; assay type: in vivo, male SD rats; settings: for Maximum Walking Time, recovery rate relative to day 1 (defined to be 100), After 1 day: after 1 day from lauric acid injection (baseline = 100); for Maximum Walking Time, recovery rate relative to day 1 (defined to be 100), After 1 day / Maximum Walking Time, recovery rate relative to day 1 (= 100), After 3 days / Maximum Walking Time, recovery rate relative to day 1 (= 100), After 7 days / Maximum Walking Time, recovery rate relative to day 1 (= 100), After 14 days / Maximum Walking Time, recovery rate relative to day 1 (= 100), After 21 days: formula (2) hydrochloride 3 mg/kg/day, pentoxifylline 60 mg/kg/day, oral; for Maximum Walking Time, recovery rate relative to day 1 (= 100), After 3 days: after 3 days from lauric acid injection, control 132; for Maximum Walking Time, recovery rate relative to day 1 (= 100), After 7 days: after 7 days from lauric acid injection, control 177; for Maximum Walking Time, recovery rate relative to day 1 (= 100), After 14 days: after 14 days from lauric acid injection, control 198; for Maximum Walking Time, recovery rate relative to day 1 (= 100), After 21 days: after 21 days from lauric acid injection, control 215
Experimental: as §1
After 1, 3, 7, 14 and 21 days from the injection of the sodium laurate solution, the maximum running time was determined according to the method described above.
as §2

Row | Compound | Recovery Time of Tissue Oxygen Saturation ([1]; 100 mg/kg orally once a day, control 2.8 ± 0.97) | Effect on the recovery time of the tissue oxygen saturation (in words) [1] | Score for Lower Limb Lesion, After 1 day [2] | Score for Lower Limb Lesion, After 3 days [2] | Score for Lower Limb Lesion, After 7 days [2] | Score for Lower Limb Lesion, After 14 days [2] | Score for Lower Limb Lesion, After 21 days [2] | Recovery Time of Tissue Oxygen Saturation ([1]; 3 mg/kg orally once a day, control 3.8 ± 0.46) | Maximum Walking Time, recovery rate relative to day 1 (defined to be 100), After 1 day [3] | Maximum Walking Time, recovery rate relative to day 1 (= 100), After 3 days [3] | Maximum Walking Time, recovery rate relative to day 1 (= 100), After 7 days [3] | Maximum Walking Time, recovery rate relative to day 1 (= 100), After 14 days [3] | Maximum Walking Time, recovery rate relative to day 1 (= 100), After 21 days [3] | Effect on the development of lesions of the lower limbs (in words) ([2]; vs control group, formula (2) hydrochloride 3 mg/kg, pentoxifylline 60 mg/kg) | Recovery Time of Tissue Oxygen Saturation ([1]; 300 mg/kg orally once a day, control 3.8 ± 1.28) | Effect on the maximum walking time (in words) ([3]; vs control group, formula (2) hydrochloride 3 mg/kg (after 7 days), pentoxifylline 60 mg/kg) | Recovery Time of Tissue Oxygen Saturation ([1]; 300 mg/kg (table) orally once a day, control 3.9 ± 1.08)
1 | O=C1CCc2cc(OCCCCc3nnnn3C3CCCCC3)ccc2N1 [Cilostazol, cilostazol] | 3.5 ± 0.52 min | does not show any substantial reduction of the recovery time |  |  |  |  |  |  |  |  |  |  |  |  |  |  | 
2 | O=CN1CCC(C(=O)NCCN2CCC(=C3c4ccccc4C=Cc4ccccc43)CC2)CC1 [Compound of Formula (2), 1-formyl-N-(2-(4-(5H-dibenzo[a,d]cyclohepten-5-ylidene)-1-piperidinyl))-ethyl-isonipecotic acid amide] |  |  | 4.0 | 3.2 | 2.2 | 1.7 | 1.5 | 2.0 ± 0.40 min | 100 | 189 | 256 | 252 | 317 |  |  |  | 
3 | CC(=O)CCCCn1c(=O)c2c(ncn2C)n(C)c1=O [Pentoxifylline, pentoxifylline] |  | did not show any reduction in the recovery time | 4.0 | 3.7 | 3.7 | 3.3 | 2.5 |  | 100 | 178 | 189 | 211 | 249 | the effect was still insufficient | 7.1 ± 1.65 min | had a tendency of increasing the maximum walking time | 
4 | COc1cccc(CCc2ccccc2OCC(CN(C)C)OC(=O)CCC(=O)O)c1 (centres unmarked) [Sarpogrelate · HCl, sarpogrelate hydrochloride] |  | did not show any reduction of the recovery time |  |  |  |  |  |  |  |  |  |  |  |  |  |  | 3.4 ± 1.33 min
